From patent US20100203647A1, “Chemical Reporters of Protein Acylation” (THE ROCKEFELLER UNIVERSITY, priority 2008, published 2010)

Experiments:
Assay type in all cases: biochemical
p300 [1] = target: T1, p300 (Homo sapiens, UniProt Q09472); assay: MALDI-TOF analysis of p300-catalyzed acylation of histone H3 peptide in vitro; details: 20 μM analog, MS analysis
T1 construct: made in house; host or cells: SF9 insect cells, baculovirus
Protocol: Cells were lysed in lysis buffer (20 mM Tris, pH 7.5, 500 mM NaCl, 4 mM MgCl2, 0.4 mM EDTA, 20% glycerol, 2 mM DTT, and supplemented with protease inhibitors). Clarified cell lysates were diluted to 300 mM NaCl, and NP-40 was added to 0.1% final concentration. Flag M2 agarose resin (Sigma) was added to the lysate and incubated for 4 hours at 4° C. […] Protein concentration and purity were estimated by comparison to BSA standards on SDS gels stained with Gelcode Blue stain (Pierce).

p300 [2] = target: T1, p300; assay: In vitro acylation of histone H3 protein by p300 and mapping of modification sites (spectral counts, nano-HPLC/MS/MS)
Protocol: Following the in vitro reaction, proteins were separated on 15% SDS-PAGE and stained with coomassie brilliant blue R-250 staining solution (Bio-Rad). The gel slices containing histone H3 products were excised from each lane, washed with 50 mM ammonium bicarbonate (ABC) twice, destained with 50 mM ABC/CH3CN (50/50) twice and dehydrated with CH3CN. After drying the gel slices in a SpeedVac, gel slices were rehydrated with trypsin solution (2 μg of trypsin for each vial/gel slice) and incubated in 37° C. water bath for 18 hrs. Trypsin-digested peptides in solution were collected, dried in SpeedVac, resuspended in H2O (with 0.1% TFA) and submitted samples to nano-HPLC/MS/MS analysis (Thermo LTQ-Orbitrap in the Proteomic Resource Center at Rockefeller University).
LC-MS analysis was performed with a Dionex 3000 nano-HPLC coupled to an LTQ-Orbitrap ion trap mass spectrometer (ThermoFisher). Peptides were pressure loaded onto a home made 75 μm diameter, 15 cm C18 reverse phase column and separated with a gradient running from 95% buffer A (HPLC water with 0.1% formic acid) and 5% buffer B (HPLC grade acetonitrile with 0.1% formic acid) to 55% B over 30 min, next ramping to 95% B over 10 min and holding 95% B for 10 min. One full MS scan (300-2000 MW) was followed by 3 data dependent scans of the nth most intense ions with dynamic exclusion enabled. The spray voltage was set to 1.94 kV and the flow rate through the column was set to 0.25 μL/min.
Raw tandem mass spectra were searched against the human IPI protein database version 3.56 using SEQUEST search engine (Thermo Scientific). Cysteine carbamido-methylation was searched as fixed modification, while methionine/tryptophan oxidation, asparagines/glutamine deamindation, lysine/serine/threonine/cysteine acetylation, N-terminal acetylation/3-butynylation/4-pentynylation/5-hexynylation and lysine 3-butynylation/4-pentynylation/5-hexynylation were searched as variable modifications. Peptide tolerance was set as 10.0 ppm, fragment ion tolerance was set as 1.0 AMU and trypsin was set as the digestion enzyme. The resulting searching files were then analyzed and visualized by Scaffold 2 proteome software.
Each identified protein must contain at least 2 unique peptides that are exclusively assigned to this protein with a minimum protein identification probability of 99%. Each peptide spectrum must meet several selection thresholds including >95% for peptide identification probability, >1.0 for SEQUEST XCorr score, and ±6 ppm for actual minus calculated peptide mass.

p300 [3] = target: T1, p300; assay: In-gel fluorescent detection of p300-catalyzed in vitro acylation of histone H3; details: CuAAC with az-Rho, in-gel fluorescence
From the text: CuAAC reactions were allowed to proceed at room temperature for 1 hr, and proteins were subsequently separated on 15% SDS-PAGE. The gels were soaked in destaining solution (40% MeOH, 10% AcOH, 50% H2O) for 1-2 hrs to remove the non-covalently bound az-Rho dye. After washing with dd H2O, the gel was subjected to in-gel fluorescence scanning.

[4] = lysine-modified peptide, H3 + acyl-CoA + p300
[5] = lysine-modified peptide, H3 + acyl-CoA, without p300

T1 sequence (Q09472 whole entry): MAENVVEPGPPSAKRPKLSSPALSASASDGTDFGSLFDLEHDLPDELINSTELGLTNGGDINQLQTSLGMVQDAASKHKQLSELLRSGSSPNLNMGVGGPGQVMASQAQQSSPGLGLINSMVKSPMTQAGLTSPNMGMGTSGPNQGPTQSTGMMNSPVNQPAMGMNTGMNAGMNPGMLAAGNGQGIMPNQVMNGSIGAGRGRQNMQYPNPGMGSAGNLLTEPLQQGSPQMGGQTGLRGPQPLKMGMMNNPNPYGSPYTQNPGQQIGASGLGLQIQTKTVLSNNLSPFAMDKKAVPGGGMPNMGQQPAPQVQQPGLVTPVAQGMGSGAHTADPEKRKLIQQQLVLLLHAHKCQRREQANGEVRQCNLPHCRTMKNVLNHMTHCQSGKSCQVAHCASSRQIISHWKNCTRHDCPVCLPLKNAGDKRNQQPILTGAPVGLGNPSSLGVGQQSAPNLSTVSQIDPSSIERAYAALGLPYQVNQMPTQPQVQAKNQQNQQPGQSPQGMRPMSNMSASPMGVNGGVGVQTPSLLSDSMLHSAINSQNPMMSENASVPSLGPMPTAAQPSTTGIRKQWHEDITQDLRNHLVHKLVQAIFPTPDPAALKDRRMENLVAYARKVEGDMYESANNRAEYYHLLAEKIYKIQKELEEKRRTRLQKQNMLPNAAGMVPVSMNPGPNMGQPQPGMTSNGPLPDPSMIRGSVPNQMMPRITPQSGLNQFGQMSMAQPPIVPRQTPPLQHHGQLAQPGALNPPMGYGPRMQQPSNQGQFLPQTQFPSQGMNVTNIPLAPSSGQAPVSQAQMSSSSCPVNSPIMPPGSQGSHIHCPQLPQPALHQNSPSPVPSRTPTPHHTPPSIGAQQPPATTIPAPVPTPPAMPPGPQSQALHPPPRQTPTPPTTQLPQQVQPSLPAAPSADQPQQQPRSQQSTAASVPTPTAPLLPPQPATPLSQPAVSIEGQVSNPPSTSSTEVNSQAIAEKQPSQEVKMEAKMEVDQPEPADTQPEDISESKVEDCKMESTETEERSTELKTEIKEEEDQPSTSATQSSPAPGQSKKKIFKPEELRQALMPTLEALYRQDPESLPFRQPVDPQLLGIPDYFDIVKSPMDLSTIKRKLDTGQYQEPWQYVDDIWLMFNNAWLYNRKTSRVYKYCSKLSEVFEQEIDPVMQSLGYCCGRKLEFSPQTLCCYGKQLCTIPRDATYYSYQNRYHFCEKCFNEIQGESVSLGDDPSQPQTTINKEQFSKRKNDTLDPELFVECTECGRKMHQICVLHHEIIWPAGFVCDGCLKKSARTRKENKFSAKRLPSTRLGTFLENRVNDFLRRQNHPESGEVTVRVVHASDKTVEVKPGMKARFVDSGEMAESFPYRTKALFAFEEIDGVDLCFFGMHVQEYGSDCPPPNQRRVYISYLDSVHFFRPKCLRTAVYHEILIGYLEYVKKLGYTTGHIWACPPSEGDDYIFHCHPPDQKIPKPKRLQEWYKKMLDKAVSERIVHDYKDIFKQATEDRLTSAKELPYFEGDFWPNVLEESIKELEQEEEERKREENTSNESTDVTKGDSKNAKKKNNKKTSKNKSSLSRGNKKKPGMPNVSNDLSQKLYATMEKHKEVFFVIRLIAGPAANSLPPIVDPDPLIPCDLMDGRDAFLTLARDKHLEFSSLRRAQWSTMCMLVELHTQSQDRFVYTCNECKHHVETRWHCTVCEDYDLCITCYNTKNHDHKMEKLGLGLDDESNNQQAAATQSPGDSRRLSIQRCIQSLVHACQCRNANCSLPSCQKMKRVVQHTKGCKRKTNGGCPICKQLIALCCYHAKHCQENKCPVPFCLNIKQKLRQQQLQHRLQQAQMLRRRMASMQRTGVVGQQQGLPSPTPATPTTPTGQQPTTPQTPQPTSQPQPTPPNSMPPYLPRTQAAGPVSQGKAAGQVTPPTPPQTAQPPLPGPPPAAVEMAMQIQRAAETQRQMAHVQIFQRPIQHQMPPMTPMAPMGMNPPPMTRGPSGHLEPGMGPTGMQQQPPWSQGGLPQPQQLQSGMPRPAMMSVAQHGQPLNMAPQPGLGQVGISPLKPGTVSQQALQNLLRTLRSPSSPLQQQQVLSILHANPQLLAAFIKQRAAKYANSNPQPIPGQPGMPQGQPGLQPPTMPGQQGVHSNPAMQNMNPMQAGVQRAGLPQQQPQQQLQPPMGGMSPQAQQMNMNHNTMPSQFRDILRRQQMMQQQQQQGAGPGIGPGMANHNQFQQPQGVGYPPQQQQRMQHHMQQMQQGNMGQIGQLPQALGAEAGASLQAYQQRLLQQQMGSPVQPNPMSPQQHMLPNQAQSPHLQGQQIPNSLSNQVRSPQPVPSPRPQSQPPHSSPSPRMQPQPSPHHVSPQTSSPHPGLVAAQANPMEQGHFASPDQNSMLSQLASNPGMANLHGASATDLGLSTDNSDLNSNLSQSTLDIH

5-hexynyl-CoA [Analog 3]
utilization as acyl-CoA donor for p300-catalyzed acylation of histone H3 peptide (p300 [1]): less efficient acyl-donor substrate
Spectral Counts of Peptide EIAQDFK (73-79) (SEQ ID NO: 7) (p300 [2]; H3 + acyl-CoA + p300): 89
Spectral Counts of Peptide KLPFQR (64-69) (SEQ ID NO: 6) (p300 [2]; H3 + acyl-CoA + p300): 8
Spectral Counts of Peptide KQLATK (18-23) (SEQ ID NO: 1) (p300 [2]; H3 + acyl-CoA + p300): 10
Spectral Counts of Peptide KSAPATGGVK (27-36) (SEQ ID NO: 2) (p300 [2]; H3 + acyl-CoA + p300): 38
Spectral Counts of Peptide SAPATGGVK (28-36) SEQ ID NO: 3 (p300 [2]; H3 + acyl-CoA + p300): 17
Spectral Counts of Peptide STELLIR (57-63) (SEQ ID NO: 5) (p300 [2]; H3 + acyl-CoA + p300): 16
Spectral Counts of Peptide VTIMPK (117-122) (SEQ ID NO: 9) (p300 [2]; H3 + acyl-CoA + p300): 8
Spectral Counts of Peptide YRPGTVALR (41-49) (SEQ ID NO: 4) (p300 [2]; H3 + acyl-CoA + p300): 57
Spectral Counts of Peptide EIAQDFK (73-79) (SEQ ID NO: 7) (p300 [2]; H3 + acyl-CoA, without p300): 74
Spectral Counts of Peptide KQLATK (18-23) (SEQ ID NO: 1) (p300 [2]; H3 + acyl-CoA, without p300): 4
Spectral Counts of Peptide KSAPATGGVK (27-36) (SEQ ID NO: 2) (p300 [2]; H3 + acyl-CoA, without p300): 36
Spectral Counts of Peptide RVTIMPK (116-122) (SEQ ID NO: 8) (p300 [2]; H3 + acyl-CoA, without p300): 1
Spectral Counts of Peptide SAPATGGVK (28-36) SEQ ID NO: 3 (p300 [2]; H3 + acyl-CoA, without p300): 12
Spectral Counts of Peptide STELLIR (57-63) (SEQ ID NO: 5) (p300 [2]; H3 + acyl-CoA, without p300): 7
Spectral Counts of Peptide VTIMPK (117-122) (SEQ ID NO: 9) (p300 [2]; H3 + acyl-CoA, without p300): 3
Spectral Counts of Peptide YRPGTVALR (41-49) (SEQ ID NO: 4) (p300 [2]; H3 + acyl-CoA, without p300): 47
Spectral Counts of Peptide KQLATK (18-23, K18) (SEQ ID NO: 13) (p300 [2]; [4]): 19
Spectral Counts of Peptide KQLATKAAR (18-26, K18, K23) (SEQ ID NO: 15) (p300 [2]; [4]): 18
Spectral Counts of Peptide KSAPATGGVK (27-36, K27) (SEQ ID NO: 17) (p300 [2]; [4]): 12
Spectral Counts of Peptide KSTGGKAPR (9-17, K9, K14) (SEQ ID NO: 11) (p300 [2]; [4]): 2
Spectral Counts of Peptide KSTGGKAPR (9-17, K14) (SEQ ID NO: 10) (p300 [2]; [4]): 11
Spectral Counts of Peptide QLATKAAR (19-26, K23) (SEQ ID NO: 16) (p300 [2]; [4]): 1
Spectral Counts of Peptide KQLATK (18-23, K18) (SEQ ID NO: 13) (p300 [2]; [5]): 2
Spectral Counts of Peptide KSAPATGGVK (27-36, K27) (SEQ ID NO: 17) (p300 [2]; [5]): 2
Spectral Counts of Peptide KSTGGKAPR (9-17, K14) (SEQ ID NO: 10) (p300 [2]; [5]): 2
visualization of p300-acylation of histone H3 (p300 [3]): serve as sensitive reagents for visualizing p300-acylation of histone H3
